How the values were obtained:
[1] = system: Human B-lymphoma cell: Ramos; test: Half inhibitory concentration (IC50) against tumor cells, CCK-8 cell viability; type: cell-based; settings: 96 h treatment
Experimental: (§1) The tumor cells used herein were cultured in a cell culture medium listed in table 2 at 37° C. in an incubator with 5% CO2. Prior to experimentation, all cells used were correctly identified by STR profiling, and tested negative for mycoplasma through routine screenings. [table] Determination of Half Inhibitory Concentration (IC50) of the Compounds Against Tumor Cells: IC50 values of the compounds of the present disclosure (including the compounds in Table 1, and compounds of examples 1-104) were measured using the Meilun Cell Counting Kit-8 kit from Dalian Meilun Biotech Co., Ltd. Assay details are as follows: tumor cells were seeded in a 96-well plate at a density listed in Table 3. After 24 h, 100 μL of the inoculated cells were treated with 0.5 μl of the compounds of the present disclosure (including the compounds in Table 1, and compounds of examples 1-104) at 10 different successively decreasing concentrations (starting at the highest concentration of […]; 5-fold serial dilutions). After the cells were treated with the compounds of the present disclosure for a period of time, cell viability was measured according to the instructions provided with the CCK-8 kit. DMSO served as the negative control, and corresponding commercial immunomodulatory drug Avadomide (CC-122) was used as the positive control, both of which treated the cells using the same protocol as that of the compounds of the present disclosure. The growth inhibition of the compounds of the present disclosure on cells was plotted by Prism Graphpad software, and the IC50 values of the compounds of the present disclosure were calculated therefrom. [table] We tested the activities of the compounds of the present invention (including the compounds in Table 1 and Examples 1-104 compounds) in tumor cells through a dose-dependent manner. The cells were treated with the compounds of the present invention at 10 different successively decreasing concentrations (starting at the highest concentration of 10 μM; 5-fold serial dilutions) for 72 h or 96 h, and then the cell viability determination was performed in accordance with CCK-8 reagent operating instructions.

[2] = system: Human Burkitt's lymphoma cell line: Daudi; test: as above; type: cell-based; settings: 96 h treatment
Experimental: as §1

[3] = system: Human cell line: Kasumi-1; test: as above; type: cell-based; settings: Kasumi-1 cells, 72 h treatment
Experimental: as §1

[4] = system: Human colon cancer cell: SW620; test: as above; type: cell-based; settings: SW-620, 96 h treatment
Experimental: as §1

[5] = system: Human dexamethasone-resistant multiple myeloma cell line: MM.1R; test: as above; type: cell-based; settings: MM.1R cells, 72 h treatment
Experimental: as §1

[6] = system: Human diffuse large B-cell lymphoma cell line: TMD8; test: as above; type: cell-based; settings: 96 h treatment
Experimental: as §1

[7] = system: Human multiple myeloma cells: MM.1S; test: as above; type: cell-based; settings: MM1.S, MM.1S cells, 72 h treatment
Experimental: as §1

[8] = biological target: human Cereblon WT GST-tagged protein (Homo sapiens (Human), UniProt Q96SW2); test: CRBN-binding affinity, CEREBLON BINDING kit (HTRF); settings: HTRF inhibitory activity, binding to CRBN
Sequence of human Cereblon WT GST-tagged protein (Q96SW2 whole entry): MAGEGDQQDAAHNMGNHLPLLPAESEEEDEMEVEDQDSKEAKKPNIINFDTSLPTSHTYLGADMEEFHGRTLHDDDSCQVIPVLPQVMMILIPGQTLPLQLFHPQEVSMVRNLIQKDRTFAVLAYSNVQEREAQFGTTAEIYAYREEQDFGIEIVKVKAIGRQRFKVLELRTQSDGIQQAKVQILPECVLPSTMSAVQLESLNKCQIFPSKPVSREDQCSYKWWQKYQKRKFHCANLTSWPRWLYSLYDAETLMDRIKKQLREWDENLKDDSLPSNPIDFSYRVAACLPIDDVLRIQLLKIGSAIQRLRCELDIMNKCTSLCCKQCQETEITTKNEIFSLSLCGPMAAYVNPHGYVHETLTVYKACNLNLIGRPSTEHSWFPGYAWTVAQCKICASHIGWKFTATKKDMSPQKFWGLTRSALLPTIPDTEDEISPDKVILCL
Excerpt: Determination of CRBN-Binding Affinity of Compounds
The CEREBLON BINDING kits (specification: 10,000 tests; product number: Catalog #64BDCRBNPEH; CISBIO company) was used to determine the CRBN binding ability of the compounds to be tested through a HTRF method (homogeneous time-resolved fluorescence). The specific methods are as follows: • 1. According to the instructions of the CEREBLON BINDING kits, the compounds to be tested of the present invention and lenalidomide were serially diluted using diluent #9 (1×) solution to obtain a final concentration of 2 μM for both the tested compounds and lenalidomide solution. • 2.2.5 μL of the above 2 μM of the tested compounds and lenalidomide solution, as well as the same volume of diluent #9 (1×) solution (solvent control group, Std0) were taken and added to each well of a 96-well plate, respectively. Then, 2.5 μL of (human Cereblon WT GST-tagged protein) solution was added to each well. Finally, 5 μL of the uniformly mixed thalidomide-Red reagent and GST Eu antibody working solution were added to each of the above wells. The final concentration of the tested compounds and lenalidomide in each well is 0.5 μM. • 3. The blank control wells were sequentially added with 2.5 μL of diluent #9 (1×) solution, 2.5 μL of PROTAC binding buffer, and 5 μL of uniformly mixed thalidomide-Red reagent and GST Eu antibody working solution. • 4. After sealing and incubating the solutions in the above wells at room temperature for 3 hours, the absorbance values at emission wavelengths of 620 nm and 665 nm were detected by the HTRF method using a Spark microplate reader (V3.1 SP1).
The corresponding CRBN binding inhibition rate was calculated using the following method: […]
Note: OD 665 nmcompound is the absorbance value of each well of the compounds to be tested of the present disclosure at an emission wavelength of 665 nm.
OD 620 nmcompound is the absorbance value of each well of the compounds to be tested of the present disclosure at an emission wavelength of 620 nm.
OD 665 nmcontrol is the absorbance value of the blank control well at an emission wavelength of 665 nm.
OD 620 nmcontrol is the absorbance value of the blank control well at an emission wavelength of 620 nm.
OD 665 nmstd0 is the absorbance value of the solvent control well at an emission wavelength of 665 nm.
OD 620 nmstd0 is the absorbance value of the solvent control well at an emission wavelength of 620 nm.

Cc1nc2cccc(N)c2c(=O)n1C1CCC(=O)NC1=O (stereo not shown) [CC-122, Avadomide, reference compound]
IC50 [1]: 1330 nM | IC50 [2]: 1650 nM | IC50 [3]: > 10000 nM | IC50 [4]: > 10000 nM | IC50 [5]: 464 nM | IC50 [6]: 890 nM | IC50 [7]: 46.9 nM

Cc1nc2cccc(NCCCCCCNC34CC5CC(CC(C5)C3)C4)c2c(=O)n1C1CCC(=O)NC1=O (stereo not shown) [GT-02235, 3-(5-((6-(((3s,5s,7s)-adamantan-1-yl)amino)hexyl)amino)-2-methyl-4-oxoquinazolin-3(4H)-yl)piperidine-2,6-dione]
IC50 [6]: 146 nM | IC50 [7]: 39.5 nM

Cc1nc2cccc(NCCCCCCCNC34CC5CC(CC(C5)C3)C4)c2c(=O)n1C1CCC(=O)NC1=O (stereo not shown) [GT-02237, 3-(5-((7-(((1s,3s)-adamantan-1-yl)amino)heptyl)amino)-2-methyl-4-oxoquinazolin-3(4H)-yl)piperidine-2,6-dione]
IC50 [6]: 8.2 nM | IC50 [7]: 3.3 nM | IC50 [8]: 950 nM

Cc1nc2cccc(NCCCCCCCNC34CC5CC(CC3C5)C4)c2c(=O)n1C1CCC(=O)NC1=O (stereo not shown) [GT-02495, 3-(5-((7-(((3as,6as)-hexahydro-2,5-methanopentalen-3a(1H)-yl)amino)heptyl)amino)-2-methyl-4-oxoquinazolin-3(4H)-yl)piperidine-2,6-dione]
IC50 [5]: 9.8 nM | IC50 [6]: 21.4 nM | IC50 [8]: 320 nM

Cc1nc2cccc(NCCCCCCCO)c2c(=O)n1C1CCC(=O)NC1=O (stereo not shown) [GT-02598, 3-(5-((7-hydroxyheptyl)amino)-2-methyl-4-oxoquinazolin-3(4H)-yl)piperidine-2,6-dione]
IC50 [7]: 17.2 nM | IC50 [8]: 3660 nM

Cc1nc2cccc(NCCCCCCCN[C@@]34CC5CC(C)(C[C@@](C)(C5)C3)C4)c2c(=O)n1C1CCC(=O)NC1=O (stereo partly drawn) [GT-02767, 3-(5-((7-(((1SR,3RS,5SR,7r)-3,5-dimethyladamantan-1-yl)amino)heptyl)amino)-2-methyl-4-oxoquinazolin-3(4H)-yl)piperidine-2,6-dione]
IC50 [6]: 309 nM | IC50 [7]: 69.9 nM | IC50 [8]: 1050 nM

Cc1nc2cccc(NCCCCCCCNC(C)C34CC5CC(CC(C5)C3)C4)c2c(=O)n1C1CCC(=O)NC1=O (stereo not shown) [GT-02768, 3-(5-((7-((1-((3r,5r,7r)-adamantan-1-yl)ethyl)amino)heptyl)amino)-2-methyl-4-oxoquinazolin-3(4H)-yl)piperidine-2,6-dione]
IC50 [6]: 294 nM | IC50 [7]: 98.1 nM | IC50 [8]: 680 nM

Cc1nc2cccc(SCCCN3CCN(CC45CC6CC(CC(C6)C4)C5)CC3)c2c(=O)n1C1CCC(=O)NC1=O (stereo not shown) [GT-03235, 3-(5-((3-(4-(((1s,3s)-adamantan-1-yl)methyl)piperazin-1-yl)propyl)thio)-2-methyl-4-oxoquinazolin-3(4H)-yl)piperidine-2,6-dione]
IC50 [1]: 398 nM | IC50 [8]: 2400 nM

Cc1nc2cccc(NCCN3CCN(CCC45CC6CC(CC(C6)C4)C5)CC3)c2c(=O)n1C1CCC(=O)NC1=O (stereo not shown) [GT-03301, 3-(5-((2-(4-(2-((3r,5r,7r)-adamantan-1-yl)ethyl)piperazin-1-yl)ethyl)amino)-2-methyl-4-oxoquinazolin-3(4H)-yl)piperidine-2,6-dione]
IC50 [1]: 165 nM | IC50 [2]: 155 nM | IC50 [3]: 104 nM | IC50 [4]: 35.8 nM | IC50 [5]: 32.8 nM | IC50 [6]: 186 nM | IC50 [7]: 79.6 nM | IC50 [8]: 1720 nM

Cc1nc2cccc(SCCN3CCN(CCC45CC6CC(CC(C6)C4)C5)CC3)c2c(=O)n1C1CCC(=O)NC1=O (stereo not shown) [GT-03305, 3-(5-((2-(4-(2-((3r,5r,7r)-adamantan-1-yl)ethyl)piperazin-1-yl)ethyl)thio)-2-methyl-4-oxoquinazolin-3(4H)-yl)piperidine-2,6-dione]
IC50 [4]: 717 nM | IC50 [8]: 1200 nM

Cc1nc2cccc(SCCCN3CCN(CCC45CC6CC(CC(C6)C4)C5)CC3)c2c(=O)n1C1CCC(=O)NC1=O (stereo not shown) [GT-03306, 3-(5-((3-(4-(2-((3r,5r,7r)-adamantan-1-yl)ethyl)piperazin-1-yl)propyl)thio)-2-methyl-4-oxoquinazolin-3(4H)-yl)piperidine-2,6-dione]
IC50 [1]: 89.3 nM | IC50 [2]: 44.9 nM | IC50 [3]: 22.3 nM | IC50 [4]: 18.6 nM | IC50 [5]: 12.7 nM | IC50 [6]: 86.5 nM | IC50 [7]: 29.3 nM | IC50 [8]: 1570 nM

Cc1nc2cccc(SCCN3CCN(c4ccc(C#N)cc4F)CC3)c2c(=O)n1C1CCC(=O)NC1=O (stereo not shown) [GT-03314, 4-(4-(2-((3-(2,6-dioxopiperidin-3-yl)-2-methyl-4-oxo-3,4-dihydroquinazolin-5-yl)thio)ethyl)piperazin-1-yl)-3-fluorobenzonitrile]
IC50 [4]: 709 nM

Cc1nc2cccc(SCCCN3CCN(C(c4ccc(F)cc4)c4ccc(F)cc4)CC3)c2c(=O)n1C1CCC(=O)NC1=O (stereo not shown) [GT-03387, 3-(5-((3-(4-(bis(4-fluorophenyl)methyl)piperazin-1-yl)propyl)thio)-2-methyl-4-oxoquinazolin-3(4H)-yl)piperidine-2,6-dione]
IC50 [1]: 490 nM | IC50 [2]: 286 nM | IC50 [5]: 276 nM | IC50 [6]: 204 nM

Cc1cc2cccc(NCCN3CCN(C(c4ccc(F)cc4)c4ccc(F)cc4)CC3)c2c(=O)n1C1CCC(=O)NC1=O (stereo not shown) [GT-03388, 3-(8-((2-(4-(bis(4-fluorophenyl)methyl)piperazin-1-yl)ethyl)amino)-3-methyl-1-oxoisoquinolin-2(1H)-yl)piperidine-2,6-dione]
IC50 [5]: 352 nM

Cc1nc2cccc(SCCCN3CCN(C(c4ccc(Cl)cc4)c4ccc(Cl)cc4)CC3)c2c(=O)n1C1CCC(=O)NC1=O (stereo not shown) [GT-03697, 3-(5-((3-(4-(bis(4-chlorophenyl)methyl)piperazin-1-yl)propyl)thio)-2-methyl-4-oxoquinazolin-3(4H)-yl)piperidine-2,6-dione]
IC50 [1]: 652 nM | IC50 [2]: 546 nM | IC50 [3]: 694 nM | IC50 [5]: 204 nM

Cc1nc2cccc(N3CC(C)N(CCC45CC6CC(CC(C6)C4)C5)C(C)C3)c2c(=O)n1C1CCC(=O)NC1=O (stereo not shown) [GT-04246, 3-(5-(4-(2-((3r,5r,7r)-adamantan-1-yl)ethyl)-3,5-dimethylpiperazin-1-yl)-2-methyl-4-oxoquinazolin-3(4H)-yl)piperidine-2,6-dione]
IC50 [4]: 387 nM | IC50 [6]: 413 nM
